Values after ≈ are worked out from the molar mass of the structure shown. “Also recorded” adds a separate entry of the source. Like-named read-outs stand apart in the source and are kept apart here. Marks after values point to notes of the source that are not given here. Where a SMILES comes first, the peptide text is derived from it. Where no end group is shown, it is not given here. [ ]: non-standard residue; d: D form. hArg = N=C(N)NCCCC[C@H](N)C(=O)O; 2Thi = N[C@@H](Cc1cccs1)C(=O)O; Dab = NCC[C@H](N)C(=O)O; Dap = NC[C@H](N)C(=O)O
How the values were obtained:
[1] = test system: A. baumannii ATCC 19606; type: cell-based, Acinetobacter baumannii
Experimental: (§1) The antimicrobial activities of the peptides were tested against E. coli ATCC 25922, P. aeruginosa ATCC 27853, carbapenem-resistant P. aeruginosa SIPI-012, A. baumannii ATCC 19606, carbapenem-resistant A. baumannii SIPI-025, S. aureus ATCC 25923, and C. albicans ATCC 10231. The minimum inhibitory concentration (MIC) values were determined using the microdilution method according to Clinical and Laboratory Standards Institute guidelines ([CLSI, 2008], [2012]). The peptides were dissolved in 10 mM PB to a concentration of 1280 μg/mL as stock solutions.
(§2) For inoculum preparation of bacteria, morphologically similar colonies selected from fresh MH agar plates were transferred using a loop into approximately 10 mL of MH broth in a capped test tube and vortexed. The suspension was adjusted with MH broth to achieve a turbidity equivalent to a 0.5 McFarland standard (BaSO4 solution prepared spectrophotometrically). A working suspension was prepared by making a 1:15 dilution followed by a 1:20 dilution of the stock suspension with MH broth medium to obtain approximately 5 × 10^5 CFU/mL. For inoculum preparation of yeast, five fresh colonies of approximately 1 mm diameter were picked from 24-hour-old cultures of C. albicans and suspended in 5 mL of sterile 0.85% saline. The resulting suspension was vortexed and the cell density was adjusted by adding sufficient sterile saline to achieve a turbidity equivalent to a 0.5 McFarland standard. A working suspension was prepared by making a 1:100 dilution followed by a 1:20 dilution of the stock suspension with RPMI 1640 broth medium to obtain 0.5 × 10^3 to 2.5 × 10^3 CFU/mL. Intermediate twofold dilutions of the peptides were prepared in MH broth and RPMI 1640 medium, and 90 μL aliquots were added to each well in addition to 10 μL of the inoculum prepared above.
(§3) Each plate included a growth control well and a sterility (uninoculated) control well. Colistin, vancomycin hydrochloride, and amphotericin B were used as positive controls for gram-negative bacteria, gram-positive bacteria, and fungi, respectively. The bacterial and fungal plates were incubated at 37°C for 20 h and 35°C for 48 h, respectively, both under ambient atmosphere. The inhibition of microbial growth was assessed visually. The MICs were determined from independent triplicate assays.

[2] = test system: carbapenem-resistant A. baumannii (CRAB) SIPI-025; type: cell-based, Acinetobacter baumannii
Experimental: as §1, §2, §3

[3] = test system: C. albicans ATCC 10231; assay: microbe, parasite or virus in culture; type: cell-based, Candida albicans; conditions: ATCC 10231, 48 h
Experimental: as §1, §2, §3

[4] = test system: carbapenem-resistant P. aeruginosa (CRPA) SIPI-012; type: cell-based, Pseudomonas aeruginosa
Experimental: as §1, §2, §3

[5] = test system: P. aeruginosa ATCC 27853; type: cell-based, Pseudomonas aeruginosa
Experimental: as §1, §2, §3

[6] = test system: E. coli ATCC 25922; type: cell-based, Escherichia coli
Experimental: as §1, §2, §3

[7] = test system: S. aureus ATCC 25923; assay: microbe, parasite or virus in culture; type: cell-based, Staphylococcus aureus; conditions: ATCC 25923, 20 h
Experimental: as §1, §2, §3

[8] = test system: human erythrocytes; assay: Hemolytic activity assay; type: cell-based; conditions: human RBC in PB, 37°C, 1 h, OD420, total lysis control 0.1% SDS, three technical replicates
Experimental: Whole blood was obtained from a healthy volunteer. The red blood cells (RBC) were then centrifuged (800 × g, 10 min), washed twice with PB, resuspended in 1 mL of PB, and incubated with various concentrations of the peptides (32–128 μM) at 37°C for 1 h. As a positive control, total lysis of the RBC was accomplished by incubation with 0.1% SDS. For each condition, three technical replicates were performed. After incubation, the RBC were centrifuged at 800 × g for 10 min and the amount of hemoglobin released into the supernatant was determined by measuring the optical density OD420 using a SpectraMax i3x microplate reader (Molecular Devices) ([Zaet et al., 2017]).

[9] = test system: RAW 264.7 cells; assay: Cell viability assay (MTT); type: cell-based, mouse; conditions: 1–128 μM peptide in DMEM with 4% FBS, 42 h, 595 nm, triplicate
Experimental: The peptides were dissolved in ddH2O to a concentration of 256 μM. RAW 264.7 cells were cultured in 100 μL of DMEM containing 10% FBS and seeded at a density of 1 × 10^4 cells in a 96-well culture plate. The plate was incubated at 37°C under 5% CO2 atmosphere overnight. After attaining 80% confluency, the cells were treated with various concentrations of the peptides (1–128 μM) dissolved in DMEM containing 4% FBS for 42 h. Cytotoxicity was determined using the MTT tetrazolium reduction assay and quantified spectrophotometrically at 595 nm using a SpectraMax i3x microplate reader. The cell viability was calculated with respect to control samples treated only with DMEM containing 4% FBS ([Khara et al., 2016]). Each test was done in triplicate and the concentration required for 50% inhibition of viability (IC50) was determined.

[10] = test system: proteases secreted by C. albicans ATCC 10231; assay: in vitro; conditions: Candida albicans, C. albicans ATCC 10231 culture supernatant, pH 8
Experimental: (§4) The stabilities of the peptides toward proteases secreted by E. coli ATCC 25922, P. aeruginosa ATCC 27853, A. baumannii ATCC 19606, S. aureus ATCC 25923, and C. albicans ATCC 10231 were also examined. Microbial supernatants were prepared by resuspending single colonies of each strain in 20 mL of an appropriate culture medium followed by incubation at 37°C overnight. MH broth and 2% tryptone/2% dextrose were used as the culture media for bacteria and yeast, respectively. Each culture was then centrifuged at 12,000 × g for 10 min and the supernatant was adjusted to pH 8.0 with HCl or NaOH and then filtered through a 0.22 μm sterile filter membrane ([Zaet et al., 2017]). The peptides were then dissolved in the filtered supernatants to a concentration of 0.5 mg/mL, and the peptide-free supernatants were used as negative controls. The samples were incubated at 37°C for 24 h in a water bath and then analyzed by RP-HPLC as described above.

[11] = test system: proteases secreted by S. aureus ATCC 25923; assay: in vitro; conditions: Staphylococcus aureus, S. aureus ATCC 25923 culture supernatant, pH 8
Experimental: as §4

[12] = test system: P. aeruginosa ATCC 9027; assay: In vivo antibacterial activity, lethal intraperitoneal infection; conditions: BALB/c mice, lethal i.p. dose of P. aeruginosa ATCC 9027, 10 mg/kg i.p. at 1 and 8 h post-infection, n = 10
Experimental: The in vivo antibacterial activities of the peptides were evaluated in BALB/c mice using P. aeruginosa ATCC 9027 as a test strain. A total of 20 mice (6 weeks old, approximate weight: 18–20 g, SFP grade) were first used to measure the minimal lethal doses (MLD) with 5 mice for each inoculum. Cell numbers of selected strains were determined from the colony numbers from the plate count agar and four inocula (1 × 10^6, 5 × 10^6, 1 × 10^7, and 5 × 10^7 CFU/mouse) were administered via intraperitoneal injection. The minimal lethal dose was determined by measuring the mortality rate after 72 h. BALB/c mice were then injected intraperitoneally with a lethal dose of P. aeruginosa ATCC 9027. […] Colistin (10 mg/kg) was used as a positive control. The survival of the animals was monitored over 7 d.

[13] = test system: BALB/c mice; assay: In vivo acute toxicity, single injection; design: species or system mouse; conditions: monitored 24 h
Experimental: Six-week-old mice (approximate weight: 18–20 g, SFP grade) were bred and maintained under specific pathogen-free conditions on a 12 h light/dark cycle. The peptides were dissolved in PBS (pH 7.4) and three mice were used for each dose. As a control, colistin was administered in a similar manner. The mice were monitored for 24 h and mice were weighed at the end of the experiment. The procedure was evaluated and approved by the Ethical Committee of Experimental Animals of the Chia Tai Tianqing Pharmaceutical Group in August 2019.
As summarized in Figure 6, a toxicity score was assigned as follows: no abnormalities = without signs; mild depression, poor motility, purple-black tail, and recovery in 1 h = mild signs; serious depression and poor motility even under stimulation = manifest signs; sudden death within 10 min = died of toxic effects.

[14] = test system: proteases secreted by P. aeruginosa ATCC 27853; assay: in vitro; conditions: Pseudomonas aeruginosa, P. aeruginosa ATCC 27853 culture supernatant, pH 8
Experimental: as §4

[15] = test system: human plasma proteases; assay: in vitro
Experimental: The peptides were mixed with plasma from healthy volunteers to a final concentration of 0.1 mg/mL and incubated at 37°C. Aliquots (20 or 40 μL) were removed after 0, 2, 4, 6, 8, 12, 24, and 36 h, mixed with 0.05% TFA to a final concentration of 0.01 mg/mL, and incubated on ice for 10 min. After centrifugation (12,000 × g, 5 min), the supernatant was stored at −20°C. The samples were analyzed as described in section “Hydrophobicity” and quantified as described in section “Stability Toward Tryptic Degradation.” All stability tests were performed at least in triplicate. The identities of the metabolites after 12 h of degradation by plasma proteases were determined by LC-MS on a Waters Acquity UPLC-QDa system.

[16] = test system: Trypsin; assay: trypsin in 0.1 M NH4HCO3 buffer (pH 8.2); conditions: 37°C, up to 24 h
[17] = plasma from healthy volunteers; conditions: human, 37°C, up to 36 h
[18] = carbapenem-resistant (CRAB) SIPI-025, 20 h
[19] = carbapenem-resistant (CRPA) SIPI-012, 20 h

Row | Compound | MIC ([1]; ATCC 19606, 20 h) | MIC [2, 18] | MIC [3] | MIC [4, 19] | MIC ([5]; ATCC 27853, 20 h) | MIC ([6]; ATCC 25922, 20 h) | MIC [7] | Hemolysis rate (%) ([8]; 64 μM) | Hemolysis rate (%) ([8]; 128 μM) | IC50 [9] | remaining at 24 h, 0.5 mg/mL [11] | also measured
1 | CC(C)C[C@H](NC(=O)[C@H](Cc1ccc(O)cc1)NC(=O)[C@H](CCN)NC(=O)[C@H](CC(C)C)NC(=O)[C@H](CC(C)C)NC(=O)[C@H](CCN)NC(=O)[C@H](CN)NC(=O)[C@H](Cc1cccs1)NC(=O)[C@H](CC(C)C)NC(=O)[C@H](CCCNC(=N)N)NC(=O)[C@@H](N)CCN)C(=O)N[C@@H](CCCCNC(=N)N)C(=O)N[C@@H](CCN)C(=O)N[C@@H](Cc1ccccc1)C(N)=O [UP15] (H-[Dab]RL[2Thi][Dap][Dab]LL[Dab]YL[hArg][Dab]F-NH2) | 2 µg/mL (≈ 1.15 µM) | 2 µg/mL (≈ 1.15 µM) | 4 µg/mL (≈ 2.29 µM) | 4 µg/mL (≈ 2.29 µM) | 1 µg/mL (≈ 0.573 µM) | 2 µg/mL (≈ 1.15 µM) | 1 µg/mL (≈ 0.573 µM) | 54.16 ± 2.02 % | 97.86 ± 3.07 % | 28.7 ± 3.52 µM | 54.6 ± 4.19% | remaining at 24 h, 0.5 mg/mL [10]: 21.1 ± 5.28%
2 | colistin [reference compound] |  |  |  |  |  |  |  |  |  |  |  | MIC ([1]; A. baumannii ATCC 19606, MH broth, 37°C, 20 h, visual, independent triplicate assays): 0.25 µg/mL; MIC ([2]; CRAB SIPI-025, MH broth, 37°C, 20 h, visual, independent triplicate assays): 0.25 µg/mL; MIC ([4]; CRPA SIPI-012, MH broth, 37°C, 20 h, visual, independent triplicate assays): 1 µg/mL; MIC ([5]; P. aeruginosa ATCC 27853, MH broth, 37°C, 20 h, visual, independent triplicate assays): 0.5 µg/mL; MIC ([6]; E. coli ATCC 25922, MH broth, 37°C, 20 h, visual, independent triplicate assays): 0.25 µg/mL; survival rate ([12]; after 3 d): 100%; survival rate ([12]; after 7 d): 100%; signs of toxicity after intravenous injection ([13]; single i.v. dose 10 mg/kg, three mice): two out of three mice dying immediately; signs of toxicity after intravenous injection ([13]; single i.v. dose 20 mg/kg, three mice): all three mice dying
3 | CC(C)C[C@H](NC(=O)[C@H](Cc1ccc(O)cc1)NC(=O)[C@H](CCN)NC(=O)[C@H](CC(C)C)NC(=O)[C@H](CC(C)C)NC(=O)[C@H](CN)NC(=O)[C@H](CN)NC(=O)[C@H](Cc1ccccc1)NC(=O)[C@H](CC(C)C)NC(=O)[C@H](CCCCNC(=N)N)NC(=O)[C@@H](N)CN)C(=O)N[C@@H](CCCCNC(=N)N)C(=O)N[C@@H](CCN)C(=O)N[C@@H](Cc1cccs1)C(N)=O [UP11] (H-[Dap][hArg]LF[Dap][Dap]LL[Dab]YL[hArg][Dab][2Thi]-NH2) | 2 µg/mL (≈ 1.15 µM) | 2 µg/mL (≈ 1.15 µM) | 4 µg/mL (≈ 2.31 µM) | 8 µg/mL (≈ 4.62 µM) | 2 µg/mL (≈ 1.15 µM) | 2 µg/mL (≈ 1.15 µM) | 1 µg/mL (≈ 0.577 µM) | 95.65 ± 2.31 % | ∼100.00* % | 28.3 ± 5.8 µM | 35.7 ± 3.82% | remaining at 24 h, 0.5 mg/mL [14]: 22.4 ± 1.72%
4 | KRLFKKLLKYLRKF-NH2 [Pep05] | 2 µg/mL | 2 µg/mL | 4 µg/mL | 4 µg/mL | 2 µg/mL | 1 µg/mL | 1 µg/mL | 34.39 ± 1.49% | 49.18 ± 2.01% | 13.4 ± 2.85 µM | 22.2 ± 4.47% | metabolised at 2 h, 0.1 mg/mL [15]: > 40%; metabolised at 4 h, 0.1 mg/mL [15]: > 50%; signs of toxicity after intravenous injection ([13]; single i.v. dose, all tested doses (5, 10, 20 mg/kg), three mice per dose): no obvious abnormalities
5 | KRLFKKLLKYLRkF |  |  |  |  |  |  |  |  |  |  |  | fragment found [16]: (K) KLLK (Y) 6–9, major, 18 h; also recorded: (R) LFKK (L) 3–6, major, 18 h; also recorded: (K) LLK (Y) 7–9, major, 18 h; also recorded: (K) YLR (k) 10–12, major, 18 h; also recorded: (R) LFK (K) 3–5, major, 18 h; also recorded: (K) YLRkF 10–14, major, 18 h; fragment found [17]: (K) RLFK(K) 2–5, major, 12 h; also recorded: KRLFKKLLKYL (R) 1–11, major, 12 h; also recorded: (K) RLFKKLLKYLRkF 2–14, major, 12 h
